# Data taken from ChEMBL document CHEMBL5113483, “Design and synthesis of NAD(P)H: Quinone oxidoreductase (NQO1)-activated prodrugs of 23-hydroxybetulinic acid with enhanced antitumor properties” (Eur J Med Chem, 2022).
# Experiments:
# [1] = system: HT-29; assay: Induction of mitochondrial membrane potential loss in human HT-29 cells assessed as healthy cells at 1 uM incubated for 48 hrs by JC-1 staining based flow cytometry analysis (reference value: 93.4 %); assay type: functional
# [2] = system: HT-29; assay: Induction of cell cycle arrest in human HT-29 cells assessed as accumulation of cells at G1 phase at 4 uM incubated for 48 hrs by RNaeA/propidium iodide based flow cytometry analysis (reference value: 62.98 %); assay type: functional
# [3] = system: HT-29; assay: Induction of cell cycle arrest in human HT-29 cells assessed as accumulation of cells at S phase at 1 uM incubated for 48 hrs by RNaeA/propidium iodide based flow cytometry analysis (reference value: 23.06 %); assay type: functional
# [4] = system: HT-29; assay: Induction of apoptosis in human HT-29 cells assessed as viable cells at 1 uM incubated for 48 hrs by Annexin V-FITC/PI staining based flow cytometry analysis (Rvb= 96.54%); assay type: functional; settings: read-out: Activity
# [5] = Selectivity index, ratio of IC50 for antiproliferative activity against NQO1-deficient human NCI-H596 cells to IC50 for antiproliferative activity against human HT-29 cells overexpressing NQO1; assay type: functional
# [6] = Selectivity index, ratio of IC50 for antiproliferative activity against human HT-29 cells overexpressing NQO1 in presence of dicoumarol to antiproliferative activity against human HT-29 cells overexpressing NQO1; assay type: functional
# [7] = system: HT-29; assay: Induction of apoptosis in human HT-29 cells assessed as dead cells at 1 uM incubated for 48 hrs by Annexin V-FITC/PI staining based flow cytometry analysis (Rvb= 0.01%); assay type: functional
# [8] = system: HT-29; assay: Induction of cell cycle arrest in human HT-29 cells assessed as accumulation of cells at G2 phase at 4 uM incubated for 48 hrs by RNaeA/propidium iodide based flow cytometry analysis (reference value: 13.96 %); assay type: functional
# [9] = system: HT-29; assay: Induction of apoptosis in human HT-29 cells assessed as upregulation of cytochrome C protein expression incubated for 48 hrs by Western blot analysis; assay type: functional, cell-based; settings: dose 1-4 µM, DDE = dose-dependent effect
# [10] = system: NCI-H596; assay: Antiproliferative activity against NQO1-deficient human NCI-H596 cells assessed as inhibition of cell growth incubated for 72 hrs by MTT assay; assay type: functional, cell-based; settings: NCI-H596, 72 h
# [11] = system: HT-29; assay: Induction of cell cycle arrest in human HT-29 cells assessed as accumulation of cells at S phase at 4 uM incubated for 48 hrs by RNaeA/propidium iodide based flow cytometry analysis (reference value: 23.06 %); assay type: functional
# [12] = molecular target: NAD(P)H dehydrogenase [quinone] 1 (Homo sapiens) (UniProt P15559); assay: Substrate activity at lyophilized human NQO1 assessed as compound decomposition measured after 60 hrs by HPLC analysis
# NAD(P)H dehydrogenase [quinone] 1 (Homo sapiens), sequence (P15559 whole entry): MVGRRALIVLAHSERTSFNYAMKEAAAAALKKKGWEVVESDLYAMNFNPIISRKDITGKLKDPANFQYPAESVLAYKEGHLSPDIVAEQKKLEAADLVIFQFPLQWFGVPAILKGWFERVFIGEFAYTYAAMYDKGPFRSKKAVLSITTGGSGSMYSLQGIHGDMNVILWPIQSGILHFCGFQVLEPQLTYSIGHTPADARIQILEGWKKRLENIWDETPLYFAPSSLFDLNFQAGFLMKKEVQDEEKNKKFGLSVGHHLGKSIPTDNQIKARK
# [13] = system: HT-29; assay: Induction of mitochondrial membrane potential loss in human HT-29 cells assessed as JC-1 monomer formation by measuring increase in green intensity at 1 uM incubated for 48 hrs by JC-1 staining based flow cytometry analysis (reference value: 6.54 %); assay type: functional
structure (smiles),measurement,setting,value
C=C(C)[C@@H]1CC[C@]2(C(=O)OCCOC(=O)CCC(=O)OCc3cn(C)c4c3C(=O)C(OC)=CC4=O)CC[C@]3(C)[C@H](CC[C@@H]4[C@@]5(C)CC[C@H](O)[C@@](C)(CO)[C@@H]5CC[C@]43C)[C@@H]12,Activity,[1],79.07%
same,Activity,[2],39.61%
same,Activity,[3],23.02%
same,viability at 1 µM,[4],75.5%
same,Ratio IC50,[5],3.44
same,Ratio IC50,[6],4.9
same,Activity,[7],2.16%
same,Activity,[8],32.73%
same,Activity,[9],Dde
same,IC50,[10],7.78 µM
same,Activity,[11],27.66%
same,Activity,[12],100%
same,Activity,[13],20.83%
